According to patent US12404283B2, “c-MYC mRNA translation modulators and uses thereof in the treatment of cancer” (Anima Biotech Inc., priority 2022, dated 2025):
Where a name gives a salt, the structure may show the parent alone.

Tested on: c-Myc
Experiment: c-Myc immunofluorescence assay
Format: cell-based, human
Conditions: A549 cells, 24 hours treatment, anti-c-Myc immunofluorescence
Experimental: A549 human non-small cell lung carcinoma cells were treated for 24 hours with increasing compound concentration, cells were fixed and stained with a nuclei stain (DAPI) and anti-c-Myc fluorescent antibody. The c-Myc signal was quantified by image analysis, and data was exported and analyzed using TIBCO Spotfire® (TIBCO Corporation). Dose response curves were generated and fitted with logaristic regression to calculate potency (EC50 values). Potency values are presented in Table 2 for all compounds and are shown for selected compounds (FIG. 4).
A549 cells were grown in 384-wells plates (Perkin Elmer, Cat. 6057300) for 48 hours, treated with compounds and then fixed for 20 min in 4% paraformaldehyde. After that permeabilization was done using 0.1% Triton X-100 in PBS for 20 min. Primary anti-c-Myc antibody (Abcam, ab32072) staining was performed for 90 min at room temperature. Cells then were washed twice with PBS and incubated with secondary antibody (Abcam, ab150075) for 90 min at room temperature. Nuclei were stained with DAPI for 10 min and washed twice with PBS.
Cell images were taken with Operetta (Perkin Elmer, USA), a wide-field fluorescence microscope at 20× magnification. After acquisition, the images were transferred to Columbus software (Perkin-Elmer) for image analysis. In Columbus, cells were identified by their nucleus, using the “Find Nuceli” module and cytoplasm was detected based on the secondary antibody channel. Subsequently, the fluorescent signal was enumerated in the identified cell region. Then data was exported to a data analysis and visualization software, Tibco Spotfire, USA.

| Structure (SMILES) | Myc Efficacy (−LogEC50) |
| --- | --- |
| CO[C@H]1CN[C@@H](c2ccc(-c3cn4c(n3)sc3cc(C(=O)NCCCN5CCC(F)CC5)ccc34)c(F)c2)C1 (relative stereo) [Compound 523, 2-(2-fluoro-4-((cis)-4-methoxypyrrolidin-2-yl)phenyl)-N-(3-(4-fluoropiperidin-1-yl)propyl)benzo[d]imidazo[2,1-b]thiazole-7-carboxamide] | +++ (+++ ≥6) |
| CO[C@H]1CN[C@@H](c2ccc(-c3cn4c(n3)sc3cc(C(=O)NC5CCN(C)CC5)ccc34)c(F)c2)C1 (relative stereo) [Compound 532, 2-(2-fluoro-4-((cis)-4-methoxypyrrolidin-2-yl)phenyl)-N-(1-methylpiperidin-4-yl)benzo[d]imidazo[2,1-b]thiazole-7-carboxamide] | +++ (+++ ≥6) |
| O=C(NC1CCOCC1)c1ccc2c(c1)sc1nc(-c3ccc([C@H]4C[C@@H](O)CN4)cc3F)cn12 (relative stereo) [Compound 533, 2-(2-fluoro-4-((cis)-4-hydroxypyrrolidin-2-yl)phenyl)-N-(tetrahydro-2H-pyran-4-yl)benzo[d]imidazo[2,1-b]thiazole-7-carboxamide] | +++ (+++ ≥6) |
| O=C(NC1CCOCC1)c1ccc2c(c1)sc1nc(-c3ccc([C@H]4C[C@H](O)CN4)cc3F)cn12 (relative stereo) [Compound 538, 2-(2-fluoro-4-((trans)-4-hydroxypyrrolidin-2-yl)phenyl)-N-(tetrahydro-2H-pyran-4-yl)benzo[d]imidazo[2,1-b]thiazole-7-carboxamide] | +++ (+++ ≥6) |
| CNC(=O)c1ccc2c(c1)sc1nc(-c3ccc([C@H]4C[C@H](O)CN4)cc3F)cn12 (relative stereo) [Compound 544, 2-(2-fluoro-4-((trans)-4-hydroxypyrrolidin-2-yl)phenyl)-N-methylbenzo[d]imidazo[2,1-b]thiazole-7-carboxamide] | +++ (+++ ≥6) |
| O=C(N[C@@H]1CCOC1)c1ccc2c(c1)sc1nc(-c3ccc(C4CCCN4)cc3F)cn12 (stereo partly drawn) [524R, 2-(2-fluoro-4-(pyrrolidin-2-yl)phenyl)-N-((R)-tetrahydrofuran-3-yl)benzo[d]imidazo[2,1-b]thiazole-7-carboxamide] | ++ (++ ≥5 and <6) |
| O=C(N[C@H]1CCOC1)c1ccc2c(c1)sc1nc(-c3ccc(C4CCCN4)cc3F)cn12 (stereo partly drawn) [524S, 2-(2-fluoro-4-(pyrrolidin-2-yl)phenyl)-N-((S)-tetrahydrofuran-3-yl)benzo[d]imidazo[2,1-b]thiazole-7-carboxamide] | ++ (++ ≥5 and <6) |
| O=C(NCCCN1CCC(F)CC1)c1ccc2c(c1)sc1nc(-c3ccc([C@H]4CCCO4)cc3F)cn12 [Compound 428R, (R)-2-(2-fluoro-4-(tetrahydrofuran-2-yl)phenyl)-N-(3-(4-fluoropiperidin-1-yl)propyl)benzo[d]imidazo[2,1-b]thiazole-7-carboxamide] | ++ (++ ≥5 and <6) |
| O=C(NCCCN1CCC(F)CC1)c1ccc2c(c1)sc1nc(-c3ccc([C@@H]4CCCO4)cc3F)cn12 [Compound 428S, (S)-2-(2-fluoro-4-(tetrahydrofuran-2-yl)phenyl)-N-(3-(4-fluoropiperidin-1-yl)propyl)benzo[d]imidazo[2,1-b]thiazole-7-carboxamide] | +++ (+++ ≥6) |
| O=C1CC[C@H](c2ccc(-c3cn4c(n3)sc3cc(C(=O)NCCCN5CCC(F)CC5)ccc34)c(F)c2)N1 [Compound 432R, (R)-2-(2-fluoro-4-(5-oxopyrrolidin-2-yl)phenyl)-N-(3-(4-fluoropiperidin-1-yl)propyl)benzo[d]imidazo[2,1-b]thiazole-7-carboxamide] | +++ (+++ ≥6) |
| O=C1CC[C@@H](c2ccc(-c3cn4c(n3)sc3cc(C(=O)NCCCN5CCC(F)CC5)ccc34)c(F)c2)N1 [Compound 432S, (S)-2-(2-fluoro-4-(5-oxopyrrolidin-2-yl)phenyl)-N-(3-(4-fluoropiperidin-1-yl)propyl)benzo[d]imidazo[2,1-b]thiazole-7-carboxamide] | +++ (+++ ≥6) |
| O=C(NCCCN1CCC(F)CC1)c1ccc2c(c1)sc1nc(-c3ccc([C@H]4CCNC4)cc3F)cn12 [Compound 434R, (R)-2-(2-fluoro-4-(pyrrolidin-3-yl)phenyl)-N-(3-(4-fluoropiperidin-1-yl)propyl)benzo[d]imidazo[2,1-b]thiazole-7-carboxamide] | +++ (+++ ≥6) |
| O=C(NCCCN1CCC(F)CC1)c1ccc2c(c1)sc1nc(-c3ccc([C@@H]4CCNC4)cc3F)cn12 [Compound 434S, (S)-2-(2-fluoro-4-(pyrrolidin-3-yl)phenyl)-N-(3-(4-fluoropiperidin-1-yl)propyl)benzo[d]imidazo[2,1-b]thiazole-7-carboxamide] | +++ (+++ ≥6) |
| Cc1c(-c2ccc([C@H]3CCCN3)cc2F)nc2sc3cc(C(=O)NCCCN4CCC(F)CC4)ccc3n12 [Compound 464R, (R)-2-(2-fluoro-4-(pyrrolidin-2-yl)phenyl)-N-(3-(4-fluoropiperidin-1-yl)propyl)-3-methylbenzo[d]imidazo[2,1-b]thiazole-7-carboxamide dihydrochloride] | +++ (+++ ≥6) |
| Cc1c(-c2ccc([C@@H]3CCCN3)cc2F)nc2sc3cc(C(=O)NCCCN4CCC(F)CC4)ccc3n12 [Compound 464S, (S)-2-(2-fluoro-4-(pyrrolidin-2-yl)phenyl)-N-(3-(4-fluoropiperidin-1-yl)propyl)-3-methylbenzo[d]imidazo[2,1-b]thiazole-7-carboxamide dihydrochloride] | +++ (+++ ≥6) |
| NC1(c2ccc(-c3cn4c(n3)sc3cc(C(=O)NCCCN5CCC(F)CC5)ccc34)c(F)c2)CC1 [Compound 474, 2-(4-(1-aminocyclopropyl)-2-fluorophenyl)-N-(3-(4-fluoropiperidin-1-yl)propyl)benzo[d]imidazo[2,1-b]thiazole-7-carboxamide] | +++ (+++ ≥6) |
| O=C(NCCCN1CCC(F)CC1)c1ccc2c(c1)sc1nc(-c3ccc(C4CCCN4)c(F)c3F)cn12 (centres unmarked) [Compound 476, 2-(2,3-difluoro-4-(pyrrolidin-2-yl)phenyl)-N-(3-(4-fluoropiperidin-1-yl)propyl)benzo[d]imidazo[2,1-b]thiazole-7-carboxamide] | +++ (+++ ≥6) |
| O=C(NCCCN1CCC(F)CC1)c1ccc2c(c1)sc1nc(-c3ccc(C4CCNC4)cc3F)cn12 (centres unmarked) [Compound 479, 2-(2-fluoro-4-(pyrrolidin-3-yl)phenyl)-N-(3-(4-fluoropiperidin-1-yl)propyl)benzo[d]imidazo[2,1-b]thiazole-7-carboxamide] | +++ (+++ ≥6) |
| O=C(NCCCN1CCC(F)CC1)c1ccc2c(c1)sc1nc(-c3ccc(C4CCCCN4)cc3F)cn12 (centres unmarked) [Compound 480, 2-(2-fluoro-4-(piperidin-2-yl)phenyl)-N-(3-(4-fluoropiperidin-1-yl)propyl)benzo[d]imidazo[2,1-b]thiazole-7-carboxamide] | +++ (+++ ≥6) |
| O=C(NCCCN1CCC(F)CC1)c1ccc2c(c1)sc1nc(-c3ccc(C4COCCN4)cc3F)cn12 (centres unmarked) [Compound 481, 2-(2-fluoro-4-(morpholin-3-yl)phenyl)-N-(3-(4-fluoropiperidin-1-yl)propyl)benzo[d]imidazo[2,1-b]thiazole-7-carboxamide] | +++ (+++ ≥6) |
